Like-named read-outs stand apart in the source and are kept apart here.
Tests used:
[1] = Stability of target compounds in phosphate-buffered saline (pH 6.5 and pH 7.4), HPLC; format: physicochemical; details: PBS pH 6.5 and 7.4, mouse and rat plasma (Figure S1)
Experimental: (§1) The stability of the target compounds was tested first, and excellent stability was essential for physiological function evaluation. Phosphate-buffered saline (PBS) of different pH values was used to evaluate the stability of the target compounds in a weakly acidic tumor microenvironment (pH 6.5) versus a weakly alkaline normal physiological environment (pH 7.4). […] The stability of the target compounds in mouse and rat plasma was excellent. The concentrations of all target compounds remained at >80% of the initial concentrations after 24 h, with the concentrations of compounds 1c, 2c, and 3c being 89%, 88%, and 83% in mouse plasma and 86%, 84%, and 81% in rat plasma, respectively (Figure 3c,d).
(§2) PBS (pH 7.4) was made with 137 mM NaCl, 2.7 mM KCl, 10 mM Na2HPO4, and 1.8 mM KH2PO4, while PBS (pH 6.5) was made with 24.6 mM Na2HPO4 and 175.4 mM NaH2PO4. The target compounds were dissolved into the different buffers (50 μM; 1% DMSO), and the mixtures were incubated at 37 °C. A 100-μL sample was transferred to a vial for HPLC analysis at 1, 2, 4, 8, 12, and 24 h. C57BL/6 mice and SD rat orbital whole blood was collected into anticoagulation tubes and centrifuged at 4000× g for 5 min at 4 °C to obtain plasma. The target compounds were dissolved into the plasma (50 μM; 1% DMSO) and incubated at 37 °C. Each sample (100 μL) was collected and precipitated using 100 μL of acetonitrile. The mixture was vortexed for 5 min and centrifuged at 10,000× g for 10 min. The supernatant was transferred to a vial for HPLC analysis after 1, 2, 4, 8, 12, and 24 h.

[2] = target: T1, NTR extracted from Escherichia coli (Escherichia coli, UniProt P38489); test: In vitro release evaluation: incubation with NTR and NADH, HPLC of derivative and released 5′-DFUR; format: biochemical; details: for concentration remaining under NTR conditions after 12 h / time after which compound was completely degraded by NTR / 5′-DFUR released: NTR 50 µg/mL, NADH 2 mM, PBS pH 7.4, 37 °C; for time after which compound was completely degraded by NTR / 5′-DFUR released: 50 µM compound; for 5′-DFUR released: at complete degradation
T1 construct: host or cells: Escherichia coli
T1 sequence (P38489 whole entry): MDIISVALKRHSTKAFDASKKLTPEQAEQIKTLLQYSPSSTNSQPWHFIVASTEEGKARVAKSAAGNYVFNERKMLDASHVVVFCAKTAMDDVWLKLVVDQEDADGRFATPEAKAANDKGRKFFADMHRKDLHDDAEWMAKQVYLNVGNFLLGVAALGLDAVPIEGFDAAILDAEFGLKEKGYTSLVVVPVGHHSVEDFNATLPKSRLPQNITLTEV
Experimental: (§3) NTR levels are reportedly much higher in hypoxic tumors than in normal tissues. To investigate the mechanism of activation of the derivatives and the amount of 5′-DFUR released, we treated the target compounds with NTR extracted from Escherichia coli to determine whether they provided the desired active agent as expected. The test compounds (50 µM, 1% dimethyl sulfoxide [DMSO]) were dissolved in PBS buffer at pH 7.4 and incubated with NTR (50 µg/mL) and NADH (2 mM) at 37 °C, and the concentrations of the derivatives and 5′-DFUR during the bioreduction were detected by high-performance liquid chromatography (HPLC). The designed target compounds 1c–3c could be metabolized to form 5′-DFUR in the presence of NTR, while the nitro-free compounds 4c–6c could not be metabolized to form 5′-DFUR. […] The metabolic rate of compound 2c was the highest, with a half-life of 0.6 h. It was completely degraded after 4 h, and 69.6% of 5′-DFUR was released. […] During the experiment, other metabolites, such as hydroxylamine derivatives and amino derivatives generated by reducing the nitro group were also detected. […] Compounds 4c, 5c and 6c, without nitro groups, remained well-stabilized under NTR conditions, with concentrations > 90% after 12 h.
(§4) The target compounds NTR and NADH were dissolved in 10 mM PBS (pH 7.4; 1% DMSO). The final concentrations of the target compounds NTR and NADH in the mixtures were 50 μM, 50 μg/mL, and 2 mM, respectively. The mixture were incubated at 37 °C. The sample (100 μL) was collected and quenched by 100 µL of cold methanol. The mixture was vortexed for 5 min and centrifuged at 10,000× g for 10 min. The supernatant was transferred to a vial for HPLC analysis at 0.25, 0.5, 1, 2, 4, 8, and 12 h.

[3] = tested on: MCF-7 human breast cancer cells; test: In vitro cytotoxicity (MTT assay) in MCF-7 cells with or without NTR; format: cell-based; details: for IC50: Homo sapiens, MCF7, MCF-7, 24 h, MTT; for IC50 (NTR-Free)/ IC50 (NTR): MCF-7, selectivity ratio
Experimental: (§5) The cytotoxicity of the target compounds 1c–6c were evaluated in MCF-7 human breast cancer cells and HT29 human colon cancer cells. These two cell lines were chosen because 5′-DFUR is currently used to treat breast and gastrointestinal tumors. The cells were incubated with the target compounds at various concentrations for 24 h in the presence or absence of NTR. The cell viability and proliferation behavior were assessed by 3-(4,5-dimethylthiazol-2-yl)-2,5-diphenyltetrazolium (MTT) assay. The half-maximal inhibitory concentration values of the tested compounds for inhibiting cell proliferation are shown in Table 1.
(§6) MCF-7 human breast cancer cells or HT29 human colon cancer cells purchased from the National Collection of Authenticated Cell Cultures were cultured in RPMI 1640 medium, and McCoy’s 5A medium supplemented with 10% fetal bovine serum and 1% penicillin-streptomycin in a humidified 5% CO2 incubator at 37 °C. Cells in the logarithmic growth phase were inoculated into 96-well plates at a density of 1.0 × 10^4 cells per well and cultured for 24 h. The target compounds were dissolved in DMSO and diluted in medium to different concentrations. The cells were then incubated with different concentrations of the target compound for 24 h. The cells in the NTR treatment group were incubated with various concentrations of compounds, NTR (final concentration, 50 µg/mL) and NADH (final concentration, 2 mM) for 24 h. Cell viability and proliferation were measured by MTT assay. Cell viability was calculated according to the following formula: cell viability (%) = (OD value of treatment group–OD value of blank group)/(OD value of control group–OD value of blank group) × 100. The half-maximal inhibitory concentration values were calculated from concentration-response curves using GraphPad PRISM (version 5.0, GraphPad, San Diego, CA, USA).

[4] = tested on: HT29 human colon cancer cells; test: In vitro cytotoxicity (MTT assay) in HT29 cells with or without NTR; format: cell-based; details: for IC50 (NTR-Free)/ IC50 (NTR): HT29, selectivity ratio; for IC50: Homo sapiens, HT-29, HT29, 24 h, MTT
Experimental: as §5, §6

[5] = Stability of target compounds in mouse plasma, HPLC; format: in vitro ADME, C57BL/6 mice; details: 50 μM, 37 °C
Experimental: as §1, §2

[6] = Stability of target compounds in rat plasma, HPLC; format: in vitro ADME, SD rat; details: 50 μM, 37 °C
Experimental: as §1, §2

NTR = target: T2, NTR (Escherichia coli, UniProt P38489); test: In vitro release evaluation: incubation with NTR and NADH, HPLC of derivative and released 5′-DFUR; format: biochemical; details: Escherichia coli; 50 µM compound, NTR 50 µg/mL, NADH 2 mM, PBS pH 7.4, 37 °C; read-out: half-life in the presence of NTR (converted)
T2 construct: host or cells: Escherichia coli
T2 sequence (P38489 whole entry): as above
Experimental: as §3, §4

HT29 colon cancer cells = test: In vivo antitumor activity in HT29 tumor-bearing mice; details: for tumor growth inhibition (TGI) rate: 50 mg/kg intraperitoneally every 2 days for 4 weeks, HT29 tumor-bearing C57BL/6 mice
Experimental: Compound 2c, which has excellent stability, a high metabolic rate, and strong cytotoxicity under NTR conditions in vitro, was selected for the in vivo evaluation of antitumor activity in tumor-bearing mice. Tumor-bearing mice were generated by the axillary injection of HT29 colon cancer cells into C57BL/6 mice. When the tumors grew to approximately 100–150 mm^3, the mice were randomly divided into negative control (vehicle), compound 2c (50 mg/kg), and positive control 5′-DFUR (50 mg/kg) groups (n = 6 each). The mice were injected intraperitoneally every 2 days for 4 weeks, and the tumor volume and body weight of the mice were measured every 2 days. No death occurred in any group of mice during the experimental period.
Four-week-old C57BL/6 mice were purchased from Jinan Pengyue Experimental Animal Breeding Co. Ltd. (Jinan, China). The mice were housed in cages under a 12-h light/dark cycle from 7:00 to 19:00 at controlled temperatures (25–26 °C) and relative humidity (50 ± 10%) throughout the experimental period. All animals were allowed to eat and drink freely unless otherwise stated and allowed to acclimate for 1 week before the experiment. All animal experimental protocols were performed in accordance with applicable institutional and governmental regulations concerning the ethical use of animals (AP2024022954).
The tumor-bearing mice model was established by the subcutaneous injection of HT29 cells (1 × 10^7 cells/mL) purchased from the National Collection of Authenticated Cell Cultures to the right axilla of C57BL/6 mice (100 µL/mouse). When the tumor size reached 100–150 mm^3, the mice were evenly divided into negative control (vehicle), group 2c (50 mg/kg), and 5′-DFUR (50 mg/kg) groups (n = 6 each). Compound 2c and 5′-DFUR were dissolved in a solution containing 10% ethanol, 10% castor oil, and 80% saline that also served as the negative control. The mice were injected intraperitoneally every 2 days for 4 weeks, and the tumor volumes and body weights of the mice were measured every 2 days. Tumor volume was calculated using the following formula: tumor volume = length (mm) × width (mm) × width (mm) × 0.5. The TGI rate was determined as follows: TGI = 1 − (treatment final volume − treatment initial volume)/(control final volume − control initial volume) × 100%.

[7] = medium with NTR and NADH 2 mM, read-out: IC50 NTR
[8] = medium without NTR, read-out: IC50 NTR-Free

SMILES	stability in PBS at different pH values and plasma (in words) [1]	concentration remaining under NTR conditions after 12 h [2]	IC50 [3, 7]	IC50 [3, 8]	IC50 (NTR-Free)/ IC50 (NTR) [3]	IC50 (NTR-Free)/ IC50 (NTR) [4]	IC50 [4, 7]	IC50 [4, 8]	concentration relative to initial concentration after 24 h in mouse plasma [5]	concentration relative to initial concentration after 24 h in rat plasma [6]	half-life at 50 µM (NTR)	time after which compound was completely degraded by NTR [2]	5′-DFUR released [2]	amount of 5′-DFUR released (AUC0–12h of relative amount), comparison in words ([2]; versus 1c and 3c, Figure 4d)	drug-related toxic reactions (in words) (HT29 colon cancer cells; 50 mg/kg i.p. every 2 days for 4 weeks)	body weight of mice (in words) (HT29 colon cancer cells; 50 mg/kg i.p. every 2 days for 4 weeks, versus positive control 5′-DFUR group)	tumor growth inhibition (TGI) rate (HT29 colon cancer cells)
C[C@H]1O[C@@H](n2cc(F)c(=O)n(Cc3cccs3)c2=O)[C@H](O)[C@@H]1O [Compound 6c]	similarly stable	> 90%	473 µM	468 µM	0.99	1.02	465 µM	474 µM	–	–	–	–	–	–	–	–	–
C[C@H]1O[C@@H](n2cc(F)c(=O)n(Cc3ccco3)c2=O)[C@H](O)[C@@H]1O [Compound 5c]	similarly stable	> 90%	423 µM	412 µM	0.97	1.09	422 µM	459 µM	–	–	–	–	–	–	–	–	–
C[C@H]1O[C@@H](n2cc(F)c(=O)n(Cc3ccc([N+](=O)[O-])s3)c2=O)[C@H](O)[C@@H]1O [Compound 3c]	–	–	96.4 µM	435 µM	4.52	7.22	63.3 µM	457 µM	83%	81%	1 h	8 h	55.6%	–	–	–	–
C[C@H]1O[C@@H](n2cc(F)c(=O)n(Cc3ccccc3)c2=O)[C@H](O)[C@@H]1O [Compound 4c]	similarly stable	> 90%	537 µM	495 µM	0.92	1.01	614 µM	621 µM	–	–	–	–	–	–	–	–	–
C[C@H]1O[C@@H](n2cc(F)c(=O)n(Cc3ccc([N+](=O)[O-])o3)c2=O)[C@H](O)[C@@H]1O [Compound 2c]	–	–	80.3 µM	400 µM	4.99	7.62	57.4 µM	437 µM	88%	84%	0.6 h	4 h	69.6%	significantly higher	No significant drug-related toxic reactions were observed	smaller weight fluctuations and were slightly higher than those of the positive control group	77.5%
C[C@H]1O[C@@H](n2cc(F)c(=O)n(Cc3ccc([N+](=O)[O-])cc3)c2=O)[C@H](O)[C@@H]1O [Compound 1c]	–	–	106 µM	470 µM	4.42	7.39	79 µM	584 µM	89%	86%	1.3 h	12 h	45.1%	–	–	–	–
C[C@H]1O[C@@H](n2cc(F)c(=O)[nH]c2=O)[C@H](O)[C@@H]1O [5′-DFUR, 5′-deoxy-5-fluorouridine, reference compound]	–	–	86.7 µM	83.6 µM	0.96	1.05	48.1 µM	50.4 µM	–	–	–	–	–	–	–	–	83.0%
